Structures are written as SMILES.

One assay concerns U-937. Put plainly: Cytotoxic activity (M) panel, Lymphoma Histiocytic U-937. To be noted: Homo sapiens, U-937, read-out: CYTOTOXIC ACTIVITY (M) U-937.
The next assay concerns MC116. As to the kind of experiment: Cytotoxic activity (M) panel, Lymphoma undifferentiated MC116. The note with it: Homo sapiens, MC116, read-out: CYTOTOXIC ACTIVITY (M) MC116, leukemias & lymphomas, Lymphoma undifferentiated, line MC116.
The next assay relates to Molt 3. As to the kind of experiment: Cytotoxic activity (M) panel, Acute lymphoblastic Molt 3. To be noted: Homo sapiens, MOLT-3, read-out: CYTOTOXIC ACTIVITY (M) Molt 3, leukemias & lymphomas, ALL Acute lymphoblastic, line Molt 3.
The next assay has as its system Hut 78. Put plainly: Cytotoxic activity (M) panel, Lymphoma Cutaneus T cell Hut 78. The note with it: Homo sapiens, HuT78, read-out: CYTOTOXIC ACTIVITY (M) Hut 78, leukemias & lymphomas, Lymphoma Cutaneus T cell, line Hut 78.
In the next assay the test system is HL60. As to the kind of experiment: cells. To be noted: Homo sapiens, HL-60, read-out: CYTOTOXIC ACTIVITY (M) HL60, leukemias & lymphomas, ALL Promyelocytic leukemia, line HL60.
The next assay concerns RAMOS. Put plainly: cells. The note with it: Homo sapiens, read-out: CYTOTOXIC ACTIVITY (M) RAMOS, leukemias & lymphomas, Lymphoma Burkitts B celll, line RAMOS.
A further assay has as its system K562. As to the kind of experiment: cells. To be noted: Homo sapiens, K562, read-out: CYTOTOXIC ACTIVITY (M) K562.
The next assay relates to H9. As to the kind of experiment: cells. The note with it: Homo sapiens, H9, read-out: CYTOTOXIC ACTIVITY (M) H9, leukemias & lymphomas, Lymphoma T-cell, line H9.
The next assay relates to 786-O. Put plainly: Cytotoxic activity (M) panel, Renal 786-O. To be noted: Homo sapiens, 786-0, read-out: CYTOTOXIC ACTIVITY (M) 786-O.
The next assay deals with OSA-FH. Put plainly: Cytotoxic activity (M) panel, Osteosarcoma OSA-FH. The note with it: read-out: CYTOTOXIC ACTIVITY (M) OSA-FH.
A further assay concerns FADU. Put plainly: Cytotoxic activity (M) panel, Pharnynx FADU. To be noted: Homo sapiens, read-out: CYTOTOXIC ACTIVITY (M) FADU.
A further assay concerns PC3. As to the kind of experiment: Cytotoxic activity (M) panel, Prostate PC3. To be noted: Homo sapiens, PC-3, read-out: CYTOTOXIC ACTIVITY (M) PC3.
Another assay deals with CHSA. Put plainly: Cytotoxic activity (M) panel, Chondrosarcoma CHSA. To be noted: read-out: CYTOTOXIC ACTIVITY (M) CHSA.
Another assay relates to PANC-1. As to the kind of experiment: Cytotoxic activity (M) panel, Pancreas PANC-1. The note with it: Homo sapiens, PANC-1, read-out: CYTOTOXIC ACTIVITY (M) PANC-1.
The subject of another assay is MEL-28. As to the kind of experiment: Cytotoxic activity (M) panel, Melanoma Mel-28. To be noted: Homo sapiens, SK-MEL-28, read-out: CYTOTOXIC ACTIVITY (M) Mel-28.
The subject of the next assay is SK-HEP-1. As to the kind of experiment: Cytotoxic activity (M) panel, Liver SK-HEP-1. To be noted: Homo sapiens, SK-HEP1, read-out: CYTOTOXIC ACTIVITY (M) SK-HEP-1.
The subject of the next assay is Hs746t. As to the kind of experiment: Cytotoxic activity (M) panel, Gastric Hs746t. The note with it: Homo sapiens, read-out: CYTOTOXIC ACTIVITY (M) Hs746t.
Another assay deals with 5637. As to the kind of experiment: Cytotoxic activity (M) panel, Bladder 5637. The note with it: read-out: CYTOTOXIC ACTIVITY (M) 5637.
A further assay relates to A549. Put plainly: Cytotoxic activity (M) panel, NSCL A549. To be noted: Homo sapiens, A549, read-out: CYTOTOXIC ACTIVITY (M) A549.
In a further assay the test system is HT-29. Put plainly: Cytotoxic activity (M) panel, Colon HT-29. To be noted: Homo sapiens, HT-29, read-out: CYTOTOXIC ACTIVITY (M) HT-29.
In a further assay the test system is LNCAP. Put plainly: Cytotoxic activity (M) panel, Prostate LNCAP. To be noted: Homo sapiens, read-out: CYTOTOXIC ACTIVITY (M) LNCAP.
The next assay has as its system SK-OV-3. Put plainly: Cytotoxic activity (M) panel, Ovary SK-OV-3. The note with it: Homo sapiens, SK-OV-3, read-out: CYTOTOXIC ACTIVITY (M) SK-OV-3.
In a further assay the test system is Y-79. Put plainly: Cytotoxic activity (M) panel, Retinoblastoma Y-79. The note with it: Homo sapiens, Y79, read-out: CYTOTOXIC ACTIVITY (M) Y-79.
The test system of a further assay is NCI-H187. As to the kind of experiment: Cytotoxic activity (M) panel, SCL NCI-H187. The note with it: Homo sapiens, NCI-H187, read-out: CYTOTOXIC ACTIVITY (M) NCI-H187.
The subject of another assay is MX-1. As to the kind of experiment: Cytotoxic activity (M) panel, Breast MX-1. The note with it: Homo sapiens, MX1, read-out: CYTOTOXIC ACTIVITY (M) MX-1.

For the molecule `COc1c(C)cc2c(c1O)[C@@H]1C3Cc4c(OC(C)=O)c(C)c5c(c4[C@H](CNC(=O)/C=C/c4ccccc4)N3[C@@H](O)[C@H](C2)N1C)OCO5` (some centres unmarked) [drawing 220], the IC50 turned out to be 3.28e-11 M in the assay with U-937, 3.8e-09 M with MC116, 5.66e-10 M in the assay on Molt 3 and 4.62e-09 M with Hut 78.

Consider `COc1c(C)cc2c(c1O)[C@@H]1C3Cc4c(OC(C)=O)c(C)c5c(c4[C@H](CNC(=O)[C@H](C)NC(=O)CCc4ccccc4)N3[C@@H](O)[C@H](C2)N1C)OCO5` (some centres unmarked) [drawing 222], for which the IC50 is 5.92e-09 M in the assay with HL60; 5.26e-11 to 1.1e-10 M with RAMOS; 1.09e-08 M with K562; 5.15e-10 M with U-937; 7.53e-12 M in the assay with Molt 3; 4.48e-09 M in the assay with H9. Further, the IC50 with Hut 78 amounted to 9.9e-10 M.

For the molecule `COc1c(C)cc2c(c1O)[C@@H]1C3Cc4c(OC(C)=O)c(C)c5c(c4[C@H](CNC(=O)[C@H](C)NC(=O)Cc4ccccc4)N3[C@@H](O)[C@H](C2)N1C)OCO5` (some centres unmarked) [drawing 223], the IC50 in the assay with HL60 came out at 1.23e-10 M; in the assay on RAMOS it was 8.85e-10 M; with K562, 4.45e-08 M; in the assay on MC116, 1.41e-09 M; in the assay with Molt 3, 8.85e-10 M; with H9, 1.14e-08 M. The IC50 in the assay with Hut 78 was determined as 1.06e-08 M.

As for `COc1c(C)cc2c(c1O)[C@@H]1C3Cc4c(OC(C)=O)c(C)c5c(c4[C@H](CNC(=O)Cc4ccccc4)N3[C@@H](O)[C@H](C2)N1C)OCO5` (some centres unmarked) [drawing 224], the IC50 in the assay on HL60 turned out to be 3.97e-10 M; with RAMOS, 7.15e-09 M; with MC116, 1.13e-08 M; in the assay on Molt 3 it was 2.54e-09 M; in the assay on Hut 78 it was 7.46e-09 M.

As for `CCCCCC(=O)NC[C@H]1c2c(c(OC(C)=O)c(C)c3c2OCO3)CC2[C@H]3c4c(cc(C)c(OC)c4O)C[C@@H]([C@H](O)N21)N3C` (some centres unmarked) [drawing 226], the IC50 in the assay on 786-O was found to be 1.72e-09 M; in the assay on OSA-FH, 1.3e-09 M; with FADU it was 1.39e-08 M; with PC3, 9.32e-10 M; in the assay on CHSA, 2.1e-09 M; with PANC-1, 1e-09 M. The IC50 in the assay with MEL-28 is 1.15e-09 M; with SK-HEP-1, 1.08e-09 M; in the assay on Hs746t, 9.19e-09 M; in the assay on 5637, 2.84e-10 M; in the assay with A549, 9.41e-09 M; in the assay with HT-29, 8.97e-09 M.

Turning to `CCC(=O)NC[C@H]1c2c(c(OC(C)=O)c(C)c3c2OCO3)CC2[C@H]3c4c(cc(C)c(OC)c4O)C[C@@H]([C@H](O)N21)N3C` (some centres unmarked) [drawing 227], the IC50 in the assay on LNCAP is 2.38e-08 M; with 786-O, 2.27e-09 M; in the assay on OSA-FH, 4.37e-09 M; in the assay with FADU, 3.05e-08 M; with SK-OV-3, 2.9e-08 M; with CHSA, 1.63e-09 M. Moreover, the IC50 with PANC-1 is 1.37e-09 M; in the assay on Y-79 it was 3.08e-10 M; in the assay on NCI-H187, 2.41e-11 M; with MEL-28 it was 2.85e-09 M; in the assay on SK-HEP-1 it was 1.17e-09 M; with Hs746t, 1.36e-09 M. In the assay on 5637, the IC50 worked out at 9.91e-10 M.

For the molecule `CCC(=O)N[C@@H](C)C(=O)NC[C@H]1c2c(c(OC(C)=O)c(C)c3c2OCO3)CC2[C@H]3c4c(cc(C)c(OC)c4O)C[C@@H]([C@H](O)N21)N3C` (some centres unmarked) [drawing 228], the IC50 was 1.77e-08 M with LNCAP; 1.54e-08 M with 786-O; 1.15e-08 M with OSA-FH; 4.38e-08 M in the assay on FADU; 2.91e-08 M in the assay with CHSA; 8.61e-09 M in the assay with PANC-1. Besides, the IC50 in the assay on Y-79 is 7.45e-10 M; in the assay with NCI-H187, 9.89e-11 M; with MEL-28 it was 1.42e-08 M; in the assay on SK-HEP-1 it was 6.21e-09 M; in the assay on Hs746t it was 8.15e-09 M; with 5637, 1.17e-09 M. Also, the IC50 in the assay on MX-1 worked out at 1.92e-09 M.

Take `CCCC(=O)NC[C@H]1c2c(c(OC(C)=O)c(C)c3c2OCO3)CC2[C@H]3c4c(cc(C)c(OC)c4O)C[C@@H]([C@H](O)N21)N3C` (some centres unmarked) [drawing 229]: the IC50 in the assay on U-937 stood at 1.92e-09 M; with MC116, 1.62e-08 M; in the assay with Molt 3, 1.62e-09 M; in the assay with Hut 78, 7.33e-09 M.

As for `CCCCCC(=O)NC[C@H]1c2c(c(OC(C)=O)c(C)c3c2OCO3)CC2[C@H]3c4c(cc(C)c(OC)c4O)C[C@@H]([C@H](O)N21)N3C` (some centres unmarked) [drawing 230], the IC50 in the assay on HL60 was determined as 1.5e-08 M; in the assay with RAMOS, 1.1e-09 M; in the assay with K562, 6.89e-08 M; in the assay on U-937, 1.08e-09 M; in the assay on MC116, 3.81e-09 M; in the assay with Molt 3, 3.87e-09 M. Besides, the IC50 was 1.08e-08 M in the assay with H9 and 1.97e-09 M in the assay with Hut 78.

With `CCC(=O)NC[C@H]1c2c(c(OC(C)=O)c(C)c3c2OCO3)CC2[C@H]3c4c(cc(C)c(OC)c4O)C[C@@H]([C@H](O)N21)N3C` (some centres unmarked) [drawing 231], the IC50 in the assay with HL60 worked out at 4.93e-10 M; in the assay with K562, 1.87e-08 M; in the assay on MC116, 1.04e-09 M; with Molt 3, 9.86e-10 M; with H9, 1.2e-08 M.

Turning to `COc1c(C)cc2c(c1O)[C@@H]1C3Cc4c(OC(C)=O)c(C)c5c(c4[C@H](COC(=O)/C=C/c4cccc(C(F)(F)F)c4)N3[C@@H](O)[C@H](C2)N1C)OCO5` (some centres unmarked) [drawing 237], the IC50 in the assay with RAMOS was found to be 8.86e-09 M; with K562, 1.56e-07 M; in the assay with U-937, 7.6e-08 M; in the assay with MC116, 1.69e-08 M; in the assay on Molt 3 it was 1.44e-08 M; in the assay on H9, 1.56e-07 M. Further, the IC50 in the assay with Hut 78 was 6.47e-08 M.

For the molecule `CCCC(=O)OC[C@H]1c2c(c(OC(C)=O)c(C)c3c2OCO3)CC2[C@H]3c4c(cc(C)c(OC)c4O)C[C@@H]([C@H](O)N21)N3C` (some centres unmarked) [drawing 240], the IC50 in the assay on RAMOS worked out at 9.09e-09 M; in the assay on K562, 2.11e-08 M; with U-937 it was 1.03e-08 M; with MC116, 1.51e-08 M; in the assay with Molt 3, 4.63e-08 M; in the assay with H9, 6.76e-08 M. In the assay on Hut 78, the IC50 worked out at 2.06e-08 M.

(Values after patent US8012975B2, “Antitumoral analogs of ET-743” (Pharma Mar, S.A., priority 2000, dated 2011).)
